Measurements taken from patent US20050026846A1, “Pharmaceutical compositions comprising alkanoyl L-carnitine in combination with a statine for treating pathologies brought about by an altered lipid metabolism” (SIGMA-TAU INDUSTRIE FARMACEUTICHE RIUNITE S.p.A., priority 1997, published 2005).

Experiments:
Assay type in all cases: in vivo, human
[1] = test system: hypertriglyceridaemic patients; assay: Clinical study: cholesterolaemia (blood-chemistry tests); details: for Cholesterolaemia, statistical significance (p) vs baseline: propionyl L-carnitine 2 g/day, Student's t-test for paired data
Procedure: (§1) Eight hypertriglyceridaemic patients (3 males and 5 females) were recruited for the study, with a mean age of 65 years (range: 52-70), presenting mean triglyceridaemia values of 213.0±21.18 mg % and mean cholesterolaemia values of 158.1±25.90 mg %, who were put on a dietary regimen consisting in 40 Kcal/kg, 1.2 g/kg proteins and 1.4 g/kg lipids daily.
(§2) After baseline determinations of cholesterolaemia, triglyceridaemia, bilirubinaemia, alkaline phosphatase, protidaemia, GOT and GPT, all subjects took propionyl L-carnitine 2 g/day os for 60 days, which was discontinued on day 61 for a 30-day wash-out period. Simvastatin was then administered at a dose of 10 mg/day os in the evening for 30 days, followed by a further 30-day washout period and then by another 30-day period during which propionyl L-carnitine 1.5 g/day os and simvastatin 5 mg/day os were administered simultaneously.
(§3) Blood-chemistry tests were performed before and after each course of drug treatment and at the end of each wash-out period. The data obtained were subjected to statistical analysis using Student's t-test for paired data (Table 1).

[2] = test system: hypertriglyceridaemic patients; assay: Clinical study: side effects; details: propionyl L-carnitine 2 g/day or 1.5 g/day os; simvastatin 10 or 5 mg/day os
Procedure: as §1, §2
All patients completed the study according to the procedures described. […] During the wash-out period the mean triglyceridaemia value recorded was 202.5±9.71 mg %, whereas the mean baseline value was 213.0±21.1 1 mg % (Table 2).

[3] = test system: hypertriglyceridaemic patients; assay: Clinical study: triglyceridaemia (blood-chemistry tests); details: for Triglyceridaemia, statistical significance (p) vs baseline: propionyl L-carnitine 2 g/day, Student's t-test for paired data
Procedure: as §1, §2, §3

[4] = 30 days os, simvastatin 10 mg/day, combination 1.5 g/day + 5 mg/day

Compound	Cholesterolaemia, statistical significance (p) vs baseline [1, 4]	Cholesterolaemia, statistical significance (p) vs baseline ([1]; 60 days os)	side effects attributable to the drugs during the study period [2]	Triglyceridaemia, statistical significance (p) vs baseline [3, 4]	Triglyceridaemia, statistical significance (p) vs baseline ([3]; 30 days os, simvastatin 10 mg/day, combination 1.5 g/day + 5 mg/day, listed as Propionyl L-carnitine)	Triglyceridaemia, statistical significance (p) vs baseline ([3]; 60 days os)	Triglyceridaemia, statistical significance (p) vs baseline ([3]; 60 days os, listed as Propionyl L-carnitine)	triglyceridaemia after treatment, significance (p): propionyl L-carnitine vs simvastatin ([3]; each administered alone)	mean cholesterolaemia value after treatment ([1]; after 30 days os, simvastatin 10 mg/day, or propionyl L-carnitine 1.5 g/day + simvastatin 5 mg/day, baseline 158.12±25.90 mg %, 8 patients)	mean post-treatment triglyceride value ([3]; after 30 days os, simvastatin 10 mg/day, or propionyl L-carnitine 1.5 g/day + simvastatin 5 mg/day, baseline 213.0±21.18 mg %, 8 patients)
CCC(=O)O[C@H](CC(=O)[O-])C[N+](C)(C)C [propionyl L-carnitine]	p < 0.4795	p < 0.0198	no side effects	< 0.3671	p < 0.3671	< 0.0272	p < 0.0272	< 0.167		
CCC(C)(C)C(=O)O[C@H]1C[C@@H](C)C=C2C=C[C@H](C)[C@H](CC[C@@H]3C[C@@H](O)CC(=O)O3)[C@H]21 [simvastatin, reference compound]	p < 0.0585								156.75±22.82 mg %	193.8±22.63 mg %
